This is an account of results in patent US4727082A, “Dihydropyridine compounds and pharmaceutical compositions containing them” (Yamanouchi Pharmaceutical Co., Ltd., priority 1984, dated 1988).

Experiment [1] in a line: Hemodynamic effects in anesthetized open-chest dogs. It counts as in vivo, Mongrel dogs. Conditions: Canis lupus familiaris; for change in vivo at 0.3 mg/kg: 0.3 mg/kg iv; for change in vivo at 1 mg/kg: 1.0 mg/kg iv. How it is done: Mongrel dogs of either sex were anesthetized with pentobarbital sodium (30 mg/kg iv). The animals were artificially ventilated with room air. The chest was opened at the left 4th intercostal space. Mean arterial blood pressure (MBP), heart rate (HR), left ventricular pressure (LVP), max. dLVP/dt, mean pulmonary arterial blood pressure (MPAP), cardiac output (CO) and coronary blood flow (Cor. BF) were measured. The test compounds were injected into the femoral vein. Hemodynamic effects of these compounds were compared with that of well known Ca^2+ -antagonists. Table 1 (column 1) indicates the percent changes of MBP and Cor. BF from control values induced by intravenous injection of test compounds.

The target of experiment [2] is T1, Beta-adrenoceptor (Rattus norvegicus, UniProt P18090).
T1 construct: from tissue; host or cells: heart in situ of anesthetized male Wistar rats (in vivo, i.v. dosing)
T1 sequence (P18090 whole entry): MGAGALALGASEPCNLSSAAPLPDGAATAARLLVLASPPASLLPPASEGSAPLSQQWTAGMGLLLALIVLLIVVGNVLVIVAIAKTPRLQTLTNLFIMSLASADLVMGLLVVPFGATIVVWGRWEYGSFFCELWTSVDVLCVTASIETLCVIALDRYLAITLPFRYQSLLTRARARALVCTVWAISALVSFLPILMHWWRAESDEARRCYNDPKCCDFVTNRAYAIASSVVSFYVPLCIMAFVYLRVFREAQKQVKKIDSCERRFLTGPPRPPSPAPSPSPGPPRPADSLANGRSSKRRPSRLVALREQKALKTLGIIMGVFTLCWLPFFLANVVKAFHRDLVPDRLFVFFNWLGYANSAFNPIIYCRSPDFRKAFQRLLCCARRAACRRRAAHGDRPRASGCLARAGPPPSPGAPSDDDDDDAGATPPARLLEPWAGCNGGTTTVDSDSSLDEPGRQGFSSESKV
Nature of the experiment: Beta-adrenoceptor blocking effects: blockade of positive chronotropic response to isoproterenol. It counts as in vivo, male Wistar rats. Conditions: 50% blockade of chronotropic response to isoproterenol 0.1 μg/kg iv, reserpinized, vagotomized rats, cumulative dose, read-out: Beta Blocking ED50. How it is done: (§1) The rats were pretreated with reserpine (8 mg/kg ip), 18 hr before experiments. […] The heart rate was measured with a cardiotachometer triggered by the QRS of the ECG (lead II) and recorded on a polygraph. After the control response to isoproterenol at a dose of 0.1 μg/kg iv was obtained, the test compound was injected iv in increasing doses at 20 min intervals.

For experiment [3], the target named is T1, Beta-adrenoceptor. Nature of the experiment: Intrinsic sympathomimetic activity (ISA), increase in heart rate. It counts as in vivo, male Wistar rats. Conditions: increase in HR, reserpinized rats, iv. As to the method: as §1
In this series of experiments, intrinsic sympathomimetic activity (ISA) was also evaluated. The results are shown in Table 1 (column 4), wherein "-" represents that an increase in HR was scarcely observed, "+" represents an increase in HR of 10 to 19 beats/min, "++" represents an increase in HR of 20 to 29 beats/min, and "+++" represents an increase in HR of above 30 beats/min.

Experiment [4] concerns coronary artery. Nature of the experiment: Coronary vasodilating effects, intracoronary injection in anesthetized dogs. It counts as in vivo, Mongrel dogs. Conditions: for Duration of action of coronary vasodilating effect: intracoronary injection; for ED100 pap (dose for 100% increase of Cor. BF): intracoronary, maximum response to papaverine 300 μg ia = 100%. As to the method:
Mongrel dogs of either sex were anesthetized and ventilated as previously described. A thoracotomy was performed at the 4th intercostal space. Following an intravenous injection of […] (1000 units/kg), blood from the distal end of the cannulated carotid artery was pumped into circumflex branch of the left coronary artery using a servocontrolled peristaltic pump which maintained a constant perfusion pressure of 120 mmHg by means of a pump controller. An electromagnetic flow probe was inserted in the circuit to record blood flow through the cannulated coronary artery. The test compounds were administered directly into the rubber tubing connected close to the coronary artery cannula. Coronary vasodilating potency of the test compounds was by calculating the dose required to produce 100% increase of Cor. BF (ED100 pap), when the maximum responses to papaverine at a dose of 300 μg ia was expressed at 100% response.

Where [5] appears, read: read-out: Cor. BF, percent change from control.
[6] abbreviates: read-out: MBP, percent change from control.

Structures are written as SMILES. Read-outs that look alike come from different tables or passages of the source.

Broadly, the ED50 is the dose at which the effect has come halfway, by size or by number of responders. `COC(=O)C1=C(C)NC(C)=C(C(=O)OC)C1c1ccccc1OCCCCNCC(O)COc1ccccc1` (stereo not drawn) [Example 34, dimethyl 4-[o-[4-(2-hydroxy-3-phenoxypropylamino)butoxy]phenyl]-2,6-dimethyl-1,4-dihydropyridine-3,5-dicarboxylate]: the change in vivo at 0.3 mg/kg in experiment [1] (setting [5]) amounted to 3%. Also, the change in vivo at 0.3 mg/kg in experiment [1] (setting [6]) was -18%. Further, the median effective dose (ED50) in experiment [2] amounted to 0.9 mg/kg. The ISA result in experiment [3] is reported as “-”. Besides, in experiment [4], the “Duration of action of coronary vasodilating effect” value is given as over 60 min and the “ED100 pap (dose for 100% increase of Cor. BF)” value was found to be 175 μg ia.
On to `COC(=O)C1=C(C)NC(C)=C(C(=O)OC)C1c1cc([N+](=O)[O-])ccc1OCCCCNCC(O)COc1ccc(NC(C)=O)cc1` (stereo not drawn) [Example 42, dimethyl 4-[2-[4-[3-(p-acetamidophenoxy)-2-hydroxypropylamino]butoxy]-5-nitrophenyl]-2,6-dimethyl-1,4-dihydropyridine-3,5-dicarboxylate], for which the change in vivo at 1 mg/kg in experiment [1] (setting [5]) was 8%; in experiment [1] (setting [6]) it was -13%. The 50% effective dose (ED50) in experiment [2] was found to be 0.5 mg/kg. Further, the ISA result in experiment [3] is recorded as “-”. The “Duration of action of coronary vasodilating effect” value in experiment [4] is listed as over 60 min. Also, the “ED100 pap (dose for 100% increase of Cor. BF)” value in experiment [4] amounted to 515 μg ia.
